For the assay, the target named is Bet BRD4 full length bromo-domain protein (Homo sapiens, UniProt O60885). As to the kind of experiment: Bet bromodomain TR-FRET assay (displacement of acetyl histone peptide). Format: binding. The settings on record: Bet BRD4 full length bromodomain protein, 300 nM acetyl histone peptide substrate, read-out: IC50. A general note: In TR-FRET formats the signal depends on donor and acceptor labels being close together.

Some results are limits rather than exact numbers.

Usually IC50 stands for the concentration at which inhibition is half-maximal. Turning to `COc1ccccc1S(=O)(=O)Nc1cc(Cc2ccccc2F)c2c(c1)C1(CCC1)C(=O)N2` [Compound 9, N-(7′-(2-fluorobenzyl)-2′-oxospiro[cyclobutane-1,3′-indolin]-5′-yl)-2-methoxybenzenesulfonamide], the IC50 is < 600 nM. The result for `COc1ccccc1S(=O)(=O)Nc1cc(Cc2cccc(F)c2)c2c(c1)C1(CCC1)C(=O)N2` [Compound 10, N-(7′-(3-fluorobenzyl)-2′-oxospiro[cyclobutane-1,3′-indolin]-5′-yl)-2-methoxybenzenesulfonamide] reads < 600 nM; that for `C=C(c1ccccc1)c1cc(NS(=O)(=O)c2ccccc2OC)cc2c1NC(=O)C21CCC1` [Compound 11, 2-Methoxy-N-(2′-oxo-7′-(1-phenylvinyl)spiro[cyclobutane-1,3′-indolin]-5′-yl)benzenesulfonamide], < 600 nM; that for `COc1ccccc1S(=O)(=O)Nc1cc(N)c2c(c1)C1(CCC1)C(=O)N2` [Compound 12, N-(7′-amino-2′-oxospiro[cyclobutane-1,3′-indolin]-5′-yl)-2-methoxy-benzenesulfonamide], < 600 nM.

Consider `COc1ccccc1S(=O)(=O)Nc1cc(NCC2CC2)c2c(c1)C1(CCC1)C(=O)N2` [Compound 13, N-(7′-((cyclopropylmethyl)amino)-2′-oxospiro[cyclobutane-1,3′-indolin]-5′-yl)-2-methoxybenzenesulfonamide], for which the IC50 is < 600 nM.

In the case of `C=CCCNc1cc(NS(=O)(=O)c2ccccc2OC)cc2c1NC(=O)C21CCC1` [Compound 14, N-(7′-(but-3-en-1-ylamino)-2′-oxospiro[cyclobutane-1,3′-indolin]-5′-yl)-2-methoxybenzenesulfonamide], the IC50 is < 600 nM.

As for `Nc1cc(NS(=O)(=O)c2ccc(F)cc2F)cc2c1NC(=O)C21CCC1` [Compound 15, N-(7′-amino-2′-oxospiro[cyclobutane-1,3′-indolin]-5′-yl)-2,4-difluoro-benzenesulfonamide], the IC50 was < 600 nM. The value for `CN1CCCC(Nc2cc(NS(=O)(=O)c3ccc(F)cc3F)cc3c2NC(=O)C32CCC2)C1` (centres unmarked) [Compound 16, 2,4-difluoro-N-(7′-((1-methylpiperidin-3-yl)amino)-2′-oxospiro [cyclobutane-1,3′-indolin]-5′-yl)benzenesulfonamide] was < 600 nM; that for `CN1CCC(Nc2cc(NS(=O)(=O)c3ccc(F)cc3F)cc3c2NC(=O)C32CCC2)CC1` [Compound 17, 2,4-Difluoro-N-(7′-((1-methylpiperidin-4-yl)amino)-2′-oxospiro[cyclobutane-1,3′-indolin]-5′-yl)benzenesulfonamide] was < 600 nM; that for `O=C1Nc2c(NC3CCOCC3)cc(NS(=O)(=O)c3ccc(F)cc3F)cc2C12CCC2` [Compound 18, 2,4-Difluoro-N-(2′-oxo-7′-((tetrahydro-2H-pyran-4-yl)amino)spiro[cyclobutane-1,3′-indolin]-5′-yl)benzenesulfonamide] was < 600 nM.

For the molecule `O=C1Nc2c(NC3CN4CCC3CC4)cc(NS(=O)(=O)c3ccc(F)cc3F)cc2C12CCC2` (centres unmarked) [Compound 19, 2,4-Difluoro-N-(2′-oxo-7′-(quinuclidin-3-ylamino)spiro[cyclobutane-1,3′-indolin]-5′-yl)benzenesulfonamide], the IC50 was < 600 nM. The result for `O=C1Nc2c(NC3CCCCC3)cc(NS(=O)(=O)c3ccc(F)cc3F)cc2C12CCC2` [Compound 20, N-(7′-(cyclohexylamino)-2′-oxospiro[cyclobutane-1,3′-indolin]-5′-yl)-2,4-difluorobenzenesulfonamide] reads > 1000 nM; that for `CCC(=O)N1CCC(Nc2cc(NS(=O)(=O)c3ccc(F)cc3F)cc3c2NC(=O)C32CCC2)CC1` [Compound 21, 2,4-Difluoro-N-(2′-oxo-7′-((1-propionylpiperidin-4-yl)amino)spiro[cyclobutane-1,3′-indolin]-5′-yl)benzenesulfonamide], < 600 nM.

Regarding `CCOC(=O)N1CCC(Nc2cc(NS(=O)(=O)c3ccc(F)cc3F)cc3c2NC(=O)C32CCC2)CC1` [Compound 22, Ethyl 4-((5′-(2,4-difluorophenylsulfonamido)-2′-oxospiro [cyclobutane-1,3′-indolin]-7′-yl)amino)piperidine-1-carboxylate], the IC50 lay in the range of 600 to 1000 nM. The result for `O=C1Nc2c(NCc3ccncc3)cc(NS(=O)(=O)c3ccc(F)cc3F)cc2C12CCC2` [Compound 23, 2,4-Difluoro-N-(2′-oxo-7′-((pyridin-4-ylmethyl)amino)spiro[cyclobutane-1,3′-indolin]-5′-yl)benzenesulfonamide] reads < 600 nM. In the case of `CCN1CCC(Nc2cc(NS(=O)(=O)c3ccc(F)cc3F)cc3c2NC(=O)C32CCC2)CC1` [Compound 24, N-(7′-((1-ethylpiperidin-4-yl)amino)-2′-oxospiro[cyclobutane-1,3′-indolin]-5′-yl)-2,4-difluorobenzenesulfonamide], the concentration for half-maximal inhibition (IC50) is < 600 nM. With `O=C1Nc2c(NCc3cnc[nH]3)cc(NS(=O)(=O)c3ccc(F)cc3F)cc2C12CCC2` [Compound 25, N-(7′-(((1H-imidazol-5-yl)methyl)amino)-2′-oxospiro [cyclo butane-1,3′-indolin]-5′-yl)-2,4-difluorobenzene sulfonamide], the IC50 was < 600 nM. The value for `O=C1Nc2c(NC3CCc4cc(F)ccc43)cc(NS(=O)(=O)c3ccc(F)cc3F)cc2C12CCC2` (centres unmarked) [Compound 26, 2,4-Difluoro-N-(7′-((5-fluoro-2,3-dihydro-1H-inden-1-yl)amino)-2′-oxospiro[cyclobutane-1,3′-indolin]-5′-yl)benzenesulfonamide] was > 1000 nM; that for `O=C1Nc2c(NCc3cccnc3)cc(NS(=O)(=O)c3ccc(F)cc3F)cc2C12CCC2` [Compound 27, 2,4-difluoro-N-(2′-oxo-7′-((pyridin-3-ylmethyl)amino)spiro[cyclobutane-1,3′-indolin]-5′-yl)benzenesulfonamide] was < 600 nM; that for `CN1CCC(CCNc2cc(NS(=O)(=O)c3ccc(F)cc3F)cc3c2NC(=O)C32CCC2)CC1` [Compound 28, 2,4-Difluoro-N-(7′-((2-(1-methylpiperidin-4-yl)ethyl)amino)-2′-oxospiro[cyclobutane-1,3′-indolin]-5′-yl)benzenesulfonamide] was < 600 nM.

For the molecule `CCCN1CCC(Nc2cc(NS(=O)(=O)c3ccc(F)cc3F)cc3c2NC(=O)C32CCC2)CC1` [Compound 29, 2,4-Difluoro-N-(2′-oxo-7′-((1-propylpiperidin-4-yl)amino)spiro[cyclobutane-1,3′-indolin]-5′-yl)benzenesulfonamide], the half-maximal inhibitory concentration (IC50) is < 600 nM. Consider `Cc1nc(CNc2cc(NS(=O)(=O)c3ccc(F)cc3F)cc3c2NC(=O)C32CCC2)c[nH]1` [Compound 30, 2,4-Difluoro-N-(7′-(((2-methyl-1H-imidazol-4-yl)methyl)amino)-2′-oxospiro[cyclobutane-1,3′-indolin]-5′-yl)benzenesulfonamide], for which the IC50 was < 600 nM. The value for `Cn1cnc(CNc2cc(NS(=O)(=O)c3ccc(F)cc3F)cc3c2NC(=O)C32CCC2)c1` [Compound 31, 2,4-Difluoro-N-(7′-(((1-methyl-1H-imidazol-4-yl)methyl)amino)-2′-oxospiro[cyclobutane-1,3′-indolin]-5′-yl)benzenesulfonamide] was < 600 nM.

Values taken from patent publication US10336697B2, “Spiro[cyclobutane-1,3′-indolin]-2′-one derivatives as bromodomain inhibitors” (Orion Corporation, priority 2015, dated 2019).
